Results: ChEMBL document CHEMBL3045802, “Synthesis and in vitro antitumor activity of new quinoline, pyrimido[4,5-b]quinoline, [1,2,3]triazino[4,5-b]quinoline, and [1,2,4]triazolo[2,3:3,4]pyrimido[6,5-b]quinoline analogs” (2013)

What was measured:
Format in all cases: functional
MDA-MB-435 = test: Cytotoxicity against Homo sapiens (human) MDA-MB-435 cells assessed as growth inhibition at 10 uM after 48 hr by coulter counter analysis; conditions: MDA-MB-435, 48 h, read-out: GI
SNB-75 = test: Cytotoxicity against Homo sapiens (human) SNB75 cells assessed as growth inhibition at 10 uM after 48 hr by coulter counter analysis; conditions: SNB-75, 48 h, read-out: GI
SF-539 = test: Cytotoxicity against Homo sapiens (human) SF539 cells assessed as growth inhibition at 10 uM after 48 hr by coulter counter analysis; conditions: SF-539, 48 h, read-out: GI
SF-295 = test: Cytotoxicity against Homo sapiens (human) SF295 cells assessed as growth inhibition at 10 uM after 48 hr by coulter counter analysis; conditions: SF-295, 48 h, read-out: GI
OVCAR-4 = test: Cytotoxicity against Homo sapiens (human) OVCAR4 cells assessed as growth inhibition at 10 uM after 48 hr by coulter counter analysis; conditions: OVCAR-4, 48 h, read-out: GI
OVCAR-3 = test: Cytotoxicity against Homo sapiens (human) OVCAR3 cells assessed as growth inhibition at 10 uM after 48 hr by coulter counter analysis; conditions: OVCAR-3, 48 h, read-out: GI
UACC-62 = test: Cytotoxicity against Homo sapiens (human) UACC62 cells assessed as growth inhibition at 10 uM after 48 hr by coulter counter analysis; conditions: UACC-62, 48 h, read-out: GI
UACC-257 = test: Cytotoxicity against Homo sapiens (human) UACC257 cells assessed as growth inhibition at 10 uM after 48 hr by coulter counter analysis; conditions: UACC-257, 48 h, read-out: GI
SK-MEL-5 = test: Cytotoxicity against Homo sapiens (human) SK-MEL-5 cells assessed as growth inhibition at 10 uM after 48 hr by coulter counter analysis; conditions: SK-MEL-5, 48 h, read-out: GI
T47D = test: Cytotoxicity against Homo sapiens (human) T47D cells assessed as growth inhibition at 10 uM after 48 hr by coulter counter analysis; conditions: read-out: GI
Hs-578T = test: Cytotoxicity against Homo sapiens (human) Hs578T cells assessed as growth inhibition at 10 uM after 48 hr by coulter counter analysis; conditions: read-out: GI
MDA-MB-231 = test: Cytotoxicity against Homo sapiens (human) MDA-MB-231 cells assessed as growth inhibition at 10 uM after 48 hr by coulter counter analysis; conditions: MDA-MB-231, 48 h, read-out: GI
RXF 393 = test: Cytotoxicity against Homo sapiens (human) RXF393 cells assessed as growth inhibition at 10 uM after 48 hr by coulter counter analysis; conditions: RXF 393, 48 h, read-out: GI
CAKI-1 = test: Cytotoxicity against Homo sapiens (human) Caki1 cells assessed as growth inhibition at 10 uM after 48 hr by coulter counter analysis; conditions: CAKI-1, 48 h, read-out: GI
A498 = test: Cytotoxicity against Homo sapiens (human) A498 cells assessed as growth inhibition at 10 uM after 48 hr by coulter counter analysis; conditions: A498, 48 h, read-out: GI
SK-OV-3 = test: Cytotoxicity against Homo sapiens (human) SKOV3 cells assessed as growth inhibition at 10 uM after 48 hr by coulter counter analysis; conditions: SK-OV-3, 48 h, read-out: GI
[1] = Cytotoxicity against Homo sapiens (human) NCI-ADR-RES cells assessed as growth inhibition at 10 uM after 48 hr by coulter counter analysis; conditions: read-out: GI
HL-60(TB) = test: Cytotoxicity against Homo sapiens (human) HL-60(TB) cells assessed as growth inhibition at 10 uM after 48 hr by coulter counter analysis; conditions: HL-60, 48 h, read-out: GI
CCRF-CEM = test: Cytotoxicity against Homo sapiens (human) CCRF-CEM cells assessed as growth inhibition at 10 uM after 48 hr by coulter counter analysis; conditions: read-out: GI
KM12 = test: Cytotoxicity against Homo sapiens (human) KM12 cells assessed as growth inhibition at 10 uM after 48 hr by coulter counter analysis; conditions: KM12, 48 h, read-out: GI
SW-620 = test: Cytotoxicity against Homo sapiens (human) SW620 cells assessed as growth inhibition at 10 uM after 48 hr by coulter counter analysis; conditions: SW-620, 48 h, read-out: GI
HCC 2998 = test: Cytotoxicity against Homo sapiens (human) HCC2998 cells assessed as growth inhibition at 10 uM after 48 hr by coulter counter analysis; conditions: HCC 2998, 48 h, read-out: GI
NCI-H226 = test: Cytotoxicity against Homo sapiens (human) NCI-H226 cells assessed as growth inhibition at 10 uM after 48 hr by coulter counter analysis; conditions: NCI-H226, 48 h, read-out: GI
EKVX = test: Cytotoxicity against Homo sapiens (human) EKVX cells assessed as growth inhibition at 10 uM after 48 hr by coulter counter analysis; conditions: read-out: GI

Structure (SMILES)	inhibition of growth at 10 µM (MDA-MB-435) [%]	inhibition of growth at 10 µM (SNB-75) [%]	inhibition of growth at 10 µM (SF-539) [%]	inhibition of growth at 10 µM (SF-295) [%]	inhibition of growth at 10 µM (OVCAR-4) [%]	inhibition of growth at 10 µM (OVCAR-3) [%]	inhibition of growth at 10 µM (UACC-62) [%]	inhibition of growth at 10 µM (UACC-257) [%]	inhibition of growth at 10 µM (SK-MEL-5) [%]	inhibition of growth at 10 µM (T47D) [%]	inhibition of growth at 10 µM (Hs-578T) [%]	inhibition of growth at 10 µM (MDA-MB-231) [%]	inhibition of growth at 10 µM (RXF 393) [%]	inhibition of growth at 10 µM (CAKI-1) [%]	inhibition of growth at 10 µM (A498) [%]	inhibition of growth at 10 µM (SK-OV-3) [%]	inhibition of growth at 10 µM [1] [%]	inhibition of growth at 10 µM (HL-60(TB)) [%]	inhibition of growth at 10 µM (CCRF-CEM) [%]	inhibition of growth at 10 µM (KM12) [%]	further results
COc1ccc(C2C3=C(CCCC3)Nc3nn[nH]c(=O)c32)cc1OC (stereo not drawn)	< 10	28.3	< 10	< 10	< 10	< 10	14.3	< 10	10.9	21.1	< 10	< 10	14.4	23.4	13.2	< 10	< 10	< 10	< 10	< 10	inhibition of growth at 10 µM (SW-620): < 10%; inhibition of growth at 10 µM (HCC 2998): < 10%; inhibition of growth at 10 µM (NCI-H226): 15.9%; inhibition of growth at 10 µM (EKVX): < 10%
COc1ccc(C2C3=C(CCCC3)Nc3[nH]c(=S)nc(NC(N)=S)c32)cc1OC (stereo not drawn)	70.7	20.3	21.1	14.4	< 10	< 10	< 10	< 10	25.5	27.5	17.7	17.4	14.3	10	< 10	18.6	11.7	< 10	< 10	21.3	inhibition of growth at 10 µM (SW-620): < 10%; inhibition of growth at 10 µM (HCC 2998): < 10%; inhibition of growth at 10 µM (NCI-H226): 18.6%; inhibition of growth at 10 µM (EKVX): < 10%
COc1ccc(C2C3=C(CCCC3)Nc3nc(CC#N)[nH]c(=O)c32)cc1OC (stereo not drawn)	< 10	< 10	< 10	< 10	< 10	< 10	< 10	< 10	< 10	< 10	< 10	< 10	< 10	< 10	< 10	< 10	< 10	< 10	< 10	< 10	inhibition of growth at 10 µM (SW-620): < 10%; inhibition of growth at 10 µM (HCC 2998): < 10%; inhibition of growth at 10 µM (NCI-H226): 11.3%; inhibition of growth at 10 µM (EKVX): < 10%
O=c1[nH]c(-c2ccccc2)nc2c1C(c1ccc(Cl)cc1)C1=C(CCCC1)N2 (stereo not drawn)	< 10	15.5	< 10	< 10	< 10	< 10	< 10	< 10	17.8	15.5	< 10	< 10	< 10	< 10	11.4	< 10	< 10	< 10	< 10	< 10	inhibition of growth at 10 µM (SW-620): < 10%; inhibition of growth at 10 µM (HCC 2998): < 10%; inhibition of growth at 10 µM (NCI-H226): 12.3%; inhibition of growth at 10 µM (EKVX): < 10%
COc1ccc(C2C3=C(CCCC3)Nc3nc(-c4ccccc4)[nH]c(=O)c32)cc1OC (stereo not drawn)	< 10	28.4	< 10	< 10	< 10	< 10	14.4	< 10	10.9	21.1	< 10	< 10	14.4	23.4	13.2	< 10	< 10	< 10	< 10	< 10	inhibition of growth at 10 µM (SW-620): < 10%; inhibition of growth at 10 µM (HCC 2998): < 10%; inhibition of growth at 10 µM (NCI-H226): 15.9%; inhibition of growth at 10 µM (EKVX): < 10%
COc1ccc(-c2nc3c(c(=O)[nH]2)C(c2ccc(OC)c(OC)c2)C2=C(CCCC2)N3)cc1OC (stereo not drawn)	< 10	22.6	14.5	< 10	10.8	< 10	< 10	< 10	18.6	28.3	< 10	< 10	10.3	13.5	< 10	< 10	< 10	< 10	11.7	< 10	inhibition of growth at 10 µM (SW-620): < 10%; inhibition of growth at 10 µM (HCC 2998): < 10%; inhibition of growth at 10 µM (NCI-H226): 13.3%; inhibition of growth at 10 µM (EKVX): < 10%
Clc1ccc(C2C3=C(CCCC3)Nc3ncn4nc(-c5ccccc5)nc4c32)cc1 (stereo not drawn)	< 10	10.5	< 10	< 10	< 10	< 10	13.4	< 10	< 10	14.7	< 10	11.1	< 10	12.4	20.6	< 10	< 10	< 10	< 10	< 10	inhibition of growth at 10 µM (SW-620): < 10%; inhibition of growth at 10 µM (HCC 2998): < 10%; inhibition of growth at 10 µM (NCI-H226): 15.2%; inhibition of growth at 10 µM (EKVX): < 10%
